Experiment [1] concerns the target T1, Rad51 (Saccharomyces cerevisiae, UniProt P25454, K191A).
T1 sequence (P25454 1-400 K191A): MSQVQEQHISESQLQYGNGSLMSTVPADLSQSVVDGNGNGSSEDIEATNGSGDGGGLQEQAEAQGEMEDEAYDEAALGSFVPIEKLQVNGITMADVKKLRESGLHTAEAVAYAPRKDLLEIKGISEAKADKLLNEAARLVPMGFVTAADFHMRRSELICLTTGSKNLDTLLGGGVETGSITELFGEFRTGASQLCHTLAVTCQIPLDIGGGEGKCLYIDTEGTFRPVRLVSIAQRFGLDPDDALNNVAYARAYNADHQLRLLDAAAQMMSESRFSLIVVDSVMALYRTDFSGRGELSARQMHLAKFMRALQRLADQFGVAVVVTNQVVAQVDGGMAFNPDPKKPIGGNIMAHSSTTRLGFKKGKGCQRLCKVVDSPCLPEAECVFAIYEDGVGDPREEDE
The experiment is described as follows: biochemical.

In experiment [2] the target is T2, Rad51 (Saccharomyces cerevisiae, UniProt P25454, K191R).
T2 sequence (P25454 1-400 K191R): T1 sequence (P25454 1-400 K191A) with A191R
The experiment is described as follows: biochemical.

The target in experiment [3] is T3, Rad51 (Saccharomyces cerevisiae, UniProt P25454).
T3 sequence (P25454 1-400): T1 sequence (P25454 1-400 K191A) with A191K
The experiment is described as follows: biochemical.

For experiment [4], the target named is T3, Rad51. Format: binding.
Experiment [5] has as its target T2, Rad51. Format: binding.
Experiment [6] deals with T1, Rad51. The class given is binding.

Changes are numbered by the printed parent chain. Like-named read-outs stand apart in the source and are kept apart here.

As for `Nc1ncnc2c1ncn2[C@@H]1O[C@H](COP(=O)(O)OP(=O)(O)OP(=O)(O)O)[C@@H](O)[C@H]1O` [ATP], the Kd on Rad51 [1] turned out to be 34.2 ± 25.8 µM; at Rad51 [2], 52.5 ± 18.2 µM; at Rad51 [3], 8.8 ± 4.5 µM.

Regarding `[N-]=[N+]=Nc1nc2c(N)ncnc2n1[C@@H]1O[C@H](COP(=O)(O)OP(=O)(O)OP(=O)(O)O)[C@@H](O)[C@H]1O` [8-Azido-ATP], the values for the Kd on Rad51 [4], at Rad51 [5] and on Rad51 [6] were 10.2 ± 5.1 µM, 26.9 ± 10.3 µM and 73.7 ± 35.6 µM, respectively.

What is called Kd is a measure of binding affinity in units of concentration.

(Values after article PMC1919488 (Nucleic Acids Research, 2007).)
